pEC50: −log10 of the molar value. Where two headings read alike, the source gives them in different places.

The test system of assay [1] is 4T1 stem cells (CD44v3highALDH1high 4T1 cells). As to the kind of experiment: Tumor cell growth inhibition of sphere-derived cancer stem cells (CellTiter-Glo). Format: cell-based, mouse. Particulars: for Fold change: stem cell EC50 vs parental EC50. As to the method:
Sphere formation to further increase the fraction of cancer stem cells was induced by suspending CD44v3highALDH1high 4T1 cells in 1:1 Matrigel/basal medium in a total of volume of 100 μl. Samples (5 × 10^4 cells) were then plated around the rims of wells in a 12-well plate and allowed to solidify at 37 °C for 10 min before 1 ml basal medium (with B27 plus 20 ng/mL EGF, 10 ng/mL FGF and 4 μg/mL insulin) was added. Medium was replenished every 3-days. Ten days after plating, spheres (tight, spherical, nonadherent masses >40 μm in diameter) per well were counted, and at least 100 spheres per group were measured. The number of spheres containing CD44v3highALDH1high 4T1 cells in each well and expressed as sphere forming units (SFU) as described previously. The number of SFUs per well was counted in triplicate wells for each condition.
To recover CD44v3highALDH1high 4T1 cells from the spheres, Matrigel–containing wells were treated with 1 mg/ml Dispase solution (Gibco). Spheres were then digested with trypsin and 0.05 % EDTA. CD44v3highALDH1high cells dissociated from spheres were counted by hemacytometer and replated to generate spheres of next generation. Serial passage of individual spheres was regularly performed in order to verify self-renewal capability of cells associated the spheres. Measurement of growth for CD44v3highALDH1high cells (dissociated from spheres) was also performed by incubating these cells in serum-free RPMI-1640 medium for 3-weeks using MTT-based growth assay as described previously.
To analyze tumor cell growth properties, sphere-derived CD44v3highALDH1high 4T1 cells were incubated in basal medium (with B27 plus 20 ng/mL EGF, 10 ng/mL FGF and 4 μg/mL insulin). Medium was replenished every 3-days. Twenty-one days after plating, the number of cell growth was then counted under a microscope at low magnification. In some cases, these sphere-derived CD44v3highALDH1high 4T1 cells were also treated with DT compounds for 5 days or doxorubicin (range 1 μM to 1 mM) for 5 days at 37 °C. The CellTiter-Glo® Luminescent Cell Viability Assay (Promega, Madison, WI) was utilized to determine the number of metabolically active cells based on the quantification of adenosine triphosphate (ATP). The percentage of […] relative to untreated controls was plotted as a linear function of drug concentration. The 50 % inhibitory concentration (IC50) was identified as the concentration of drug required to achieve a 50 % growth inhibition relative to untreated controls.
A stem cell–enriched cell population was prepared as described previously by sorting for ALDH1 and CD44v3. The identification of aldehyde dehydrogenase1 (ALDH1) activity from tumor–derived 4T1 Luc2-GFP cells (PerkinElmer, Waltham, MA) was conducted using the ALDEFLUOR kit (StemCell Technologies, Durham, NC). Specifically, tumor cells were suspended in ALDEFLUOR assay buffer containing ALDH1 substrate (BAAA, […] per 1 × 10^6 cells) and incubated for 30 min at 37 °C. As a negative control, 4T1 cells were treated with a specific ALDH1 inhibitor, […] diethylaminobenzaldehyde (DEAB). Next, for labeling cell surface marker, tumor–derived 4T1 cells were suspended in 100 μl ALDEFLUOR buffer followed by incubating with 20 μl allophycocyanin (APC)-labeled anti-CD44v3 antibody (recognizing the v3-specific domain of CD44) or APC-labeled normal mouse IgG (as a control) (BD Bioscience, San Jose, CA) for 15 min at 4 °C. For FACS sorting, tumor cells were incubated in PBS buffer followed by FACS (BD FACS Aria llu, BD Bioscience, San Jose, CA) sorting using dual-wavelength analysis as described previously. The parental cell line contained 2 % CD44v3highALDH1high cells but the final sorted cells contained 18 % CD44v3highALDH1high cells, a 9-fold enrichment.
For orientation: In ATP-based viability assays light output follows the ATP content of the culture.

The test system of assay [2] is 4T1 Luc2-GFP cells. As to the kind of experiment: Orthotopic 4T1 syngeneic model of triple-negative breast cancer with natural lung metastasis. Format: in vivo, BALB/c mice. Particulars: for number of large multicellular micrometastases and vascularized macrometastases to the lung: i.p. or osmotic pump. As to the method:
4T1 Luc2-GFP cells (PerkinElmer, Waltham, MA) were cultured in DMEM high glucose media with 2 mM pyruvate, 2 mM glutamine, 2 % Pen/Strep and 10 % Cosmic Calf Serum (Mediatech, Manassas, VA). To prepare cells for injection they were removed from flasks, counted using the TC10 counting system (BioRad, Hercules, CA) and checked for viability. Cells were then washed with PBS, pelleted and taken up at a concentration of 75,000 cells/ml; 100 μl of cell suspension (7,500 cells) was injected subcutaneously (bevel side up) into mammary fat pad #4 of 8 weeks old female BALB/c mice (NCI National Laboratory Frederick/Charles River animal production program). All animals were weighed and tumors were measured using calipers three times weekly. Beginning one week after implantation, which is when micrometastatic cells begin to arrive in the lungs, animals were treated three times per week with intraperitoneal DT310 or DT320 at their NOAEL dose of 75 mg/kg three times week dissolved in saline or by osmotic pump. The osmotic pumps (Alzet #2004) delivered an NOAEL dose of 23.4 and 26.7 μg/h of DT310 and DT320, respectively, for 4 weeks and were implanted as directed subcutaneously posterior to scapulae. Docetaxel was delivered once weekly intraperitoneally at its MTD of 15 mg/kg and doxorubicin delivered once weekly at its MTD of 1 mg/kg in 5 % N-Methyl-2-pyrrolidone, 5 % Solutol HS, and 90 % saline. GFP positive cells were imaged with excitation of GFP emission using a Leica Model Z16 APO fluorescence microscope equipped for a wide field, a large depth of field and 0.57–9.2X zoom capability. GFP-positive objects were counted and scored as to whether they were […], clumps of less than ten cells without a visible vasculature, as determined by co-injection of tetramethylrhodamine labeled dextran (2 million MW).

Assay [3] has as its system 4T1 parental cells. In words: EC50 on parental 4T1 cell line grown on plastic surface. Format: cell-based, mouse. Here is the method: Because cancer stem cells are highly resistant to conventional chemotherapy and are thought to initiate tumors, the activity of the DT series of drugs was also checked against cancer stem cells obtained from the 4T1 line. […] For comparison the EC50 values of DT310, DT320, and doxorubicin were determined in 4T1 parental cells plated on plastic. Because this assay targeting stem cells was performed in suspension culture, we also tested whether SISgel differentiated the stem cells. As indicated by the presence of pluripotency markers (Nanog, Sox2, Oct4), the cells retained their pluripotency markers on SISgel (Fig. 5). […] The 4T1 stem cells could not be tested on Matrigel or on plastic because they differentiate and are therefore no longer stem cells. 4T1 cancer stem cells were much more sensitive to the DT agents, particularly to DT320, than to conventional chemotherapeutic drugs.

The mark [4] stands for this setting: suspension culture, 5 days, read-out: EC50 4T1 stem cells in suspension culture.
Where [5] appears, read: i.p. injection or osmotic pump, vs untreated.

As to `O=S(=O)([O-])c1ccc2c(N=Nc3cccc4ccccc34)c(O)c(S(=O)(=O)[O-])cc2c1.[Na+].[Na+]` [DT310, 4-(1-naphthalenylhydrazinylidene) -3-oxonaphthalene-2,7-disulfonic acid], in assay [1], the Fold change was 9.8. Moreover, the figures for the pEC50 in assay [1] (setting [4]) and in assay [3] (plastic surface) were 3.85 and 4.84, respectively. Further, the primary tumor growth result in assay [2] (setting [5]) is “significant reduction”. Besides, the “number of large multicellular micrometastases and vascularized macrometastases to the lung” value in assay [2] is “most sharply”. Also, in assay [2] (osmotic pump administration), the “number of single micrometastatic cells and small micrometastases in lung” value is given as “significant effect”.

With `O=S(=O)([O-])c1cc(O)c2c(O)c(N=Nc3cccc4ccccc34)c(S(=O)(=O)[O-])cc2c1.[Na+].[Na+]` [DT320, 4,5-Dihydroxy-3-(1-naphthalenylazo)-2,7-naphthalenedisulfonic acid disodium salt], the pEC50 (commonly the negative decadic logarithm of the EC50, by convention in mol/L) was 4.15 in assay [1] (grown on SISgel, read-out: EC50 4T1 stem cells grown on SISgel); 4.30 in assay [1] (setting [4]); 4.71 in assay [3] (plastic surface). For the same compound, the Fold change in assay [1] was determined as 2.5. For the same compound, the primary tumor growth result in assay [2] (setting [5]) is “significant reduction”.

With `COc1cccc2c1C(=O)c1c(O)c3c(c(O)c1C2=O)C[C@@](O)(C(=O)CO)C[C@@H]3O[C@H]1C[C@H](N)[C@H](O)[C@H](C)O1` [Doxorubicin, reference compound], the pEC50 in assay [1] (Mus musculus, 4T1, 120 h, suspension culture, 5 days, read-out: EC50 4T1 stem cells in suspension culture) is 3.20; in assay [3] (Mus musculus, 4T1), 5.33. The Fold change in assay [1] is recorded as 134.0. Further, the primary tumor growth entry in assay [2] (administered i.p. at MTD) is “small effect”. In addition, in assay [2], the “number of large multicellular micrometastases and vascularized macrometastases to the lung” value was “only minimal effects”.
